Results as given in patent US20230279023A1, “N/O-Linked Degrons and Degronimers for Protein Degradation” (C4 Therapeutics, Inc., priority 2019, published 2023).

Target: CRBN-DDB1 (Homo sapiens (Human), UniProt Q96SW2)
Assay: Fluorescence polarization (FP) assay for compound ligand binding to CRBN-DDB1
Details: FP displacement of (−)-Thalidomide-Alexa Fluor or Pomalidomide-fluorescein probe; 400 nM CRBN-DDB1, 5 nM probe; Compounds of the Present Invention
Description: Measuring compound ligand binding to CRBN-DDB1 was carried out using an established sensitive and quantitative in vitro fluorescence polarization (FP) based binding assay. […] Compounds were dispensed from serially diluted DMSO stock into black 384-well compatible fluorescence polarization plates using an Echo acoustic dispenser. Compound binding to CRBN-DDB1 was measured by displacement of either a (−)-Thalidomide-Alexa Fluor® or Pomalidomide-fluorescein conjugated probe dye. […] Matching control wells excluding CRBN-DDB1 were used to correct for background fluorescence. Plates were read on an Envision plate reader with appropriate FP filter sets. The corrected S (perpendicular) and P (parallel) values were used to calculate fluorescence polarization (FP) with the following equation: […]

CRBN-DDB1, sequence (Q96SW2 whole entry): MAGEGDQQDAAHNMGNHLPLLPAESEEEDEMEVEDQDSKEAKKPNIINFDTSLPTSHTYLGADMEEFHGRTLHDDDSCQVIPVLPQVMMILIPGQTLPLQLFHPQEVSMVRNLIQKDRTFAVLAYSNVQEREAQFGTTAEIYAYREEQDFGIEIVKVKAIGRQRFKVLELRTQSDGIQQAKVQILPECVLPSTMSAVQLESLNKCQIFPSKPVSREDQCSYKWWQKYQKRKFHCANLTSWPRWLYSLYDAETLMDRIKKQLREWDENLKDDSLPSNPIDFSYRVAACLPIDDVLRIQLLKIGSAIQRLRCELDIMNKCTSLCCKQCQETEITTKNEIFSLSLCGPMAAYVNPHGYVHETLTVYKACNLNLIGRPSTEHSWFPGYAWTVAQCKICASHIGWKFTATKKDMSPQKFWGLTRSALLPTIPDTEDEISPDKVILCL
CRBN-DDB1, sequence (Q16531 whole entry partner): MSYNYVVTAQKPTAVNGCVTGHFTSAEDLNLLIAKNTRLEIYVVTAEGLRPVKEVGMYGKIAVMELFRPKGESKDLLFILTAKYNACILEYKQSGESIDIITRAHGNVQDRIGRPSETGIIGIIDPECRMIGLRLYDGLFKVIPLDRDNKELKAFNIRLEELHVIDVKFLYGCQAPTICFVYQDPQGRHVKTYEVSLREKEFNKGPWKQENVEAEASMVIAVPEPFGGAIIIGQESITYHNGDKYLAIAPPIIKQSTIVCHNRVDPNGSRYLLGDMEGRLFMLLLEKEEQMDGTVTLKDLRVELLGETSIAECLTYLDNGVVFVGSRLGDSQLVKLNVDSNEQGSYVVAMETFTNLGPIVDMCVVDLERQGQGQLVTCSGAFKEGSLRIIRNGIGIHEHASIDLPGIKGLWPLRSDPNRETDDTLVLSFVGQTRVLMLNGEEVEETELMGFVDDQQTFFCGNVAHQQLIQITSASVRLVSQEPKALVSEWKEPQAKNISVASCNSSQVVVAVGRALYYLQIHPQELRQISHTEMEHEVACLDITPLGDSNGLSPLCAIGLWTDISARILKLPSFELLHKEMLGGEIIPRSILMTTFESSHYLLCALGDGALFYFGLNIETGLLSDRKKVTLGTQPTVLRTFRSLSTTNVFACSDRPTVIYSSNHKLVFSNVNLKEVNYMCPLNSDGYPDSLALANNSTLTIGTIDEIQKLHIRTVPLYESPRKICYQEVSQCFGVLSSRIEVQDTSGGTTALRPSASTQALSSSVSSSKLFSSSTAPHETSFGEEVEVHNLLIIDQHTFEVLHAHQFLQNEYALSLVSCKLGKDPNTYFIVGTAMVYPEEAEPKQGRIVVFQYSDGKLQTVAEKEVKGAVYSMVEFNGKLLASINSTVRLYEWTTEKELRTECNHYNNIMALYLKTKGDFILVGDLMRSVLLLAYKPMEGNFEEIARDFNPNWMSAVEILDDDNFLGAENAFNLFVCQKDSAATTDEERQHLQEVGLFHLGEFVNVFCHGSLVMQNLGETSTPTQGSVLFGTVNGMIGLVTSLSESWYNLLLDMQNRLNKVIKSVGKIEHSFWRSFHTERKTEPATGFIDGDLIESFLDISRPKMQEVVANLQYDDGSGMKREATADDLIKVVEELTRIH

Kd [µM]	SMILES
< 10	O=C1CCC(Nc2cccc(-c3ccccc3)c2)C(=O)N1 (centres unmarked) [Compound 3]
< 10	O=C1CCC(Nc2ccc(-c3ccccc3)cc2)C(=O)N1 (centres unmarked) [Compound 6]
< 10	COc1ccc(NC2CCC(=O)NC2=O)cc1F (centres unmarked) [Compound 7]
< 10	O=C1CCC(Nc2cccc(F)c2)C(=O)N1 (centres unmarked) [Compound 9]
< 10	COc1cc(F)ccc1NC1CCC(=O)NC1=O (centres unmarked) [Compound 10]
< 10	COc1ccc(NC2CCC(=O)NC2=O)c(F)c1 (centres unmarked) [Compound 11]
< 10	Cc1ccc(NC2CCC(=O)NC2=O)cc1C#N (centres unmarked) [Compound 12]
< 10	COc1cccc(NC2CCC(=O)NC2=O)c1 (centres unmarked) [Compound 13]
< 10	COc1ccccc1NC1CCC(=O)NC1=O (centres unmarked) [Compound 15]
< 10	O=C1CCC(Nc2cc(Cl)ccc2O)C(=O)N1 (centres unmarked) [Compound 19]
< 10	O=C1CCC(Nc2cccc(-c3ccccn3)c2)C(=O)N1 (centres unmarked) [Compound 22]
< 10	O=C1CCC(Nc2ccc(C(F)(F)F)cc2)C(=O)N1 (centres unmarked) [Compound 26]
< 10	O=C1CCC(Nc2ccc(CN3CCOCC3)cc2)C(=O)N1 (centres unmarked) [Compound 27]
< 10	O=C1CCC(Nc2ccc(Oc3ccccc3)cc2)C(=O)N1 (centres unmarked) [Compound 28]
< 10	O=C1CCC(Nc2cccc(Oc3ccccc3)c2)C(=O)N1 (centres unmarked) [Compound 30]
< 10	CCCOc1ccc(NC2CCC(=O)NC2=O)cc1 (centres unmarked) [Compound 31]
< 10	O=C1CCC(Nc2cccc(C(F)(F)F)c2)C(=O)N1 (centres unmarked) [Compound 35]
< 10	COc1ccc(NC2CCC(=O)NC2=O)c(C)c1 (centres unmarked) [Compound 36]
< 10	O=C1CCC(Nc2ccc(Cl)cc2)C(=O)N1 (centres unmarked) [Compound 37]
< 10	Cc1ccc(NC2CCC(=O)NC2=O)cc1 (centres unmarked) [Compound 38]
< 10	O=C1CCC(Nc2cccc(-c3cnco3)c2)C(=O)N1 (centres unmarked) [Compound 39]
< 10	O=C1CCC(Nc2cccc(Cl)c2)C(=O)N1 (centres unmarked) [Compound 40]
< 10	CC(C)(C)c1ccccc1NC1CCC(=O)NC1=O (centres unmarked) [Compound 41]

Kd [µM]	SMILES
< 10	COc1ccc(C)cc1NC1CCC(=O)NC1=O (centres unmarked) [Compound 42]
< 10	O=C1CCC(Nc2ccc(F)cc2Cl)C(=O)N1 (centres unmarked) [Compound 43]
< 10	COc1ccc(Cl)c(NC2CCC(=O)NC2=O)c1 (centres unmarked) [Compound 44]
< 10	O=C1CCC(Nc2cc(F)ccc2Cl)C(=O)N1 (centres unmarked) [Compound 45]
< 10	COc1ccc(NC2CCC(=O)NC2=O)cc1Cl (centres unmarked) [Compound 46]
< 10	COc1cc(Cl)ccc1NC1CCC(=O)NC1=O (centres unmarked) [Compound 47]
< 10	COc1ccc(Cl)cc1NC1CCC(=O)NC1=O (centres unmarked) [Compound 48]
< 10	O=C1CCC(Nc2ccccc2Cl)C(=O)N1 (centres unmarked) [Compound 49]
< 10	Cc1ccccc1NC1CCC(=O)NC1=O (centres unmarked) [Compound 50]
< 10	Cn1ccc2cc(NC3CCC(=O)NC3=O)ccc21 (centres unmarked) [Compound 51]
< 10	COc1ccc(NC2CCC(=O)NC2=O)cc1 (centres unmarked) [Compound 52]
< 10	O=C1CCC(Nc2ccccc2F)C(=O)N1 (centres unmarked) [Compound 53]
< 10	O=C1CCC(Nc2c(F)cccc2Cl)C(=O)N1 (centres unmarked) [Compound 54]
< 10	N#Cc1cccc(NC2CCC(=O)NC2=O)c1 (centres unmarked) [Compound 56]
< 10	COc1c(Cl)cccc1NC1CCC(=O)NC1=O (centres unmarked) [Compound 62]
< 10	Cc1cccc(NC2CCC(=O)NC2=O)c1C#N (centres unmarked) [Compound 65]
< 10	CN1CCN(c2ccc(NC3CCC(=O)NC3=O)cc2)CC1 (centres unmarked) [Compound 66]
< 10	O=C1CCC(Nc2ccc(N3CCOCC3)cc2)C(=O)N1 (centres unmarked) [Compound 67]
> 100	Cc1ccc(C#N)cc1NC1CCC(=O)NC1=O (centres unmarked) [Compound 68]
< 10	COc1ccc(NC2CCC(=O)NC2=O)c(OC)c1 (centres unmarked) [Compound 70]
< 10	O=C1CCC(Nc2cccc3ccccc23)C(=O)N1 (centres unmarked) [Compound 77]
< 10	O=C1CCC(Nc2ccc(C3CCNCC3)cc2)C(=O)N1 (centres unmarked) [Compound 85]

Continued, compound first:

SMILES	Kd [µM]
CN(c1ccccc1)C1CCC(=O)NC1=O (centres unmarked) [Compound 1]	< 10
COc1cc(Cl)c(C)cc1NC1CCC(=O)NC1=O (centres unmarked) [Compound 4]	< 10
O=C1CCC(Nc2ccccc2-c2ccccc2)C(=O)N1 (centres unmarked) [Compound 5]	< 10
COc1cccc(N(C)C2CCC(=O)NC2=O)c1 (centres unmarked) [Compound 16]	< 10
Cc1cccc(N(C)C2CCC(=O)NC2=O)c1 (centres unmarked) [Compound 18]	< 10
COc1ccc(N(C)C2CCC(=O)NC2=O)cc1 (centres unmarked) [Compound 20]	< 10
O=C1CCC(Nc2ccccc2Oc2ccccc2)C(=O)N1 (centres unmarked) [Compound 23]	< 10
COc1cc(NC2CCC(=O)NC2=O)cc(C(F)(F)F)c1 (centres unmarked) [Compound 29]	< 10
CN(c1ccc(Br)cc1)C1CCC(=O)NC1=O (centres unmarked) [Compound 32]	< 10
CN(c1cccc(F)c1)C1CCC(=O)NC1=O (centres unmarked) [Compound 33]	< 10
CN(c1cccc(Cl)c1)C1CCC(=O)NC1=O (centres unmarked) [Compound 34]	< 10
O=C1CCC(Nc2ccccc2OC(F)F)C(=O)N1 (centres unmarked) [Compound 55]	< 10
CN(c1cccc(Br)c1)C1CCC(=O)NC1=O (centres unmarked) [Compound 57]	< 10
CN(c1cccc(C(F)(F)F)c1)C1CCC(=O)NC1=O (centres unmarked) [Compound 58]	< 10
CN(c1ccc(C(F)(F)F)cc1)C1CCC(=O)NC1=O (centres unmarked) [Compound 59]	< 10
CN(c1ccc(Cl)c(Cl)c1)C1CCC(=O)NC1=O (centres unmarked) [Compound 60]	< 10
Cc1ccccc1N(C)C1CCC(=O)NC1=O (centres unmarked) [Compound 61]	< 10
O=C1CCC(Nc2cccc(N3CCOCC3)c2)C(=O)N1 (centres unmarked) [Compound 64]	< 10

SMILES	Kd [µM]
CC(C)(C)OC(=O)N1CCc2cc(NC3CCC(=O)NC3=O)ccc2C1 (centres unmarked) [Compound 79]	< 10
CC(C)(C)OC(=O)N1CCC(c2ccc(NC3CCC(=O)NC3=O)cc2)CC1 (centres unmarked) [Compound 81]	< 10
CC(C)(C)OC(=O)N1CCN(c2cccc(NC3CCC(=O)NC3=O)c2)CC1 (centres unmarked) [Compound 82]	< 10
O=C1CCC(Nc2cccc(N3CCNCC3)c2)C(=O)N1 (centres unmarked) [Compound 86]	< 10
CN(c1cccc(N2CCN(C(=O)OC(C)(C)C)CC2)c1)C1CCC(=O)NC1=O (centres unmarked) [Compound 88]	< 10
CC(C)(C)OC(=O)n1cc(C#N)c(NC2CCC(=O)NC2=O)n1 (centres unmarked) [Compound 95]	> 100
N#Cc1c[nH]nc1NC1CCC(=O)NC1=O (centres unmarked) [Compound 96]	> 100
CN(C1COC1)C1CCC(=O)NC1=O (centres unmarked) [Compound 97]	> 100
O=C1CCC(NC2CC(=O)N(c3ccccc3)C2)C(=O)N1 (centres unmarked) [Compound 99]	> 100
CN(C1CNC1)C1CCC(=O)NC1=O (centres unmarked) [Compound 101]	> 100
CN1CC(N(C)C2CCC(=O)NC2=O)C1 (centres unmarked) [Compound 102]	> 100
CN1CCC(N(C)C2CCC(=O)NC2=O)CC1=O (centres unmarked) [Compound 106]	> 100
CN(CC(=O)O)C1CCC(=O)NC1=O (centres unmarked) [Compound 107]	> 100
CNC(=O)CN(C)C1CCC(=O)NC1=O (centres unmarked) [Compound 109]	> 100
CC(C)(C)OC(=O)N1CCN(C2=CC(=O)NC2=O)CC1 [Compound 111]	> 100
O=C1C=C(Nc2ccccc2)C(=O)N1 [Compound 112]	> 100
O=C1CCC(N2CCc3cccnc32)C(=O)N1 (centres unmarked) [Compound 118]	> 100
